What was measured:
hERG = hERG (Homo sapiens (Human), UniProt Q12809); assay: hERG Qpatch assay; assay type: cell-based; settings: hERG expressing CHO-K1 cells, automated patch clamp, tail current
Method: This assay was performed by the method described in Skepper et al., J. Med. Chem. 2020, 63, 7773-7816:
hERG expressing cell lines were produced in-house at Novartis using CHO-K1 T-Rex inducible plasmid system (Invitrogen) as described previously (Cao et al., Assay Drug Dev. Technol. 2010, 8, 766-780). Cell lines were maintained in Ham's F12 nutrient mixture containing 10% FBS, blasticidin ([…]; InvivoGen), hygromycin B ([…]; InvivoGen), Zeocin ([…], Invitrogen), and neomycin ([…], Invitrogen) using SelecT automated cell culture system (TAP Biosystems, Cambridge, U.K.). hERG and hCav1.2 channels expression was induced with tetracycline (0.25-1 μg/mL, Invitrogen) at least 24 h prior to the experiment.
hERG currents were recorded using the Qpatch automated patch clamp systems (Sophion Bioscience Inc., North Brunswick, NJ) in the whole (single) cell configuration. hERG expressing CHO-K1 cells were harvested with Detachin (Genlantis) and stored in the modified serum-free SFM-2 media (Life Technologies) at room temperature. The extracellular solution contained (in mM) NaCl (145), KCl (4), MgCl2 (1), CaCl2 (2), and HEPES (10), pH 7.4, with NaOH. The intracellular solution contained KCl (135), MgCl2 (1.75), CaCl2 (5.4), EGTA (10), K2-ATP (4), and HEPES (10), pH 7.2, with KOH. After whole cell configuration was achieved, the cell was held at −90 mV, and a 0.1 s pulse to −50 mV was delivered to measure the leaking current, which was subtracted from the tail current online. Then the cell was depolarized to +20 mV for 4 s (prepulse), followed by a 4 s test pulse to −50 mV to reveal the hERG tail current. To monitor changes in the current amplitude, this voltage protocol was repeatedly applied every 20 s. Test compounds were first diluted in DMSO for six dose-response experiments and then dissolved in the extracellular solution using Freedom EVO liquid handling robotic system (Tecan, Männedorf, Switzerland). The final DMSO concentration in samples was 0.3% v/v. Amitriptyline (Sigma) was tested as a positive control. Data were analyzed using in-house developed MatLab-based program (MathWorks, Natick, MA).

NR2B = NR2B (Rattus norvegicus (Rat), UniProt Q00960); assay: NR2B rat cortical neuron calcium influx assay; assay type: cell-based; settings: rat cortical neurons, glutamate and glycine stimulated calcium influx, 2 hours compound incubation
Description: Example 1: NR2B Rat Cortical Neuron Calcium Influx Assay Protocol
Embryonic day 18 timed pregnant Sprague Dawley rats were euthanized according to Institutional Animal Care and Use Committee (IACUC) protocol. After cutting medially through the skin and exposing the uterus and embryos, fetuses were removed and placed in cold Hibernate medium. Each embryo's brain was extracted and cerebral cortices were isolated by removing the midbrain and meninges. The dissected cortices were then dissociated into the neurons using papain dissociation system (Worthington Biochemical Corporation) according the manufacturer's protocol.
Dissociated neurons were counted and plated into 384-well poly-D-lysine coated plates (Corning® BioCoat™) at a density of 20,000 cells/well in 30 μL of Neurobasal/B27 complete medium. Neurons were cultured at 37° C. for 2 days. On the assay day, medium was removed and cells were incubated with 20 μL/well of calcium dye (Calcium 6 Assay Kit, Molecular Devices) suspended in HBSS with 1.8 mM Ca^2+ (Ca-HBSS) according to the manufacturer's instruction.
Compounds of interest from 10 mM stock were serially diluted into 3× of desired concentrations in 1.8 mM Ca-HBSS, and 10 μL were added to the wells. Compound and the neurons were incubated at 37° C. for 2 hours in the dark.
On FDSS7000EX (Hamamatsu Photonics), a fluorescence measuring instrument, 10 μL of 4× ligand solution containing glutamate and glycine made in 1.8 mM Ca^2+-HBSS were added to each well. The fluorescent signals were collected before and after the addition of ligands for a total of 2 minutes. The data were converted to a ratio of the peak fluorescence to the fluorescence at the beginning of the measurement.
Each data point was measured in duplicates. Dose response curves were used to identify IC50 and maximal inhibition values. IC50 represents the concentration in μM of compound at which there is a half-maximal compound effect. Maximal inhibition of a compound is expressed as a percent of the highest inhibition of activity over a no compound control.

Sequence of hERG (Q12809 whole entry): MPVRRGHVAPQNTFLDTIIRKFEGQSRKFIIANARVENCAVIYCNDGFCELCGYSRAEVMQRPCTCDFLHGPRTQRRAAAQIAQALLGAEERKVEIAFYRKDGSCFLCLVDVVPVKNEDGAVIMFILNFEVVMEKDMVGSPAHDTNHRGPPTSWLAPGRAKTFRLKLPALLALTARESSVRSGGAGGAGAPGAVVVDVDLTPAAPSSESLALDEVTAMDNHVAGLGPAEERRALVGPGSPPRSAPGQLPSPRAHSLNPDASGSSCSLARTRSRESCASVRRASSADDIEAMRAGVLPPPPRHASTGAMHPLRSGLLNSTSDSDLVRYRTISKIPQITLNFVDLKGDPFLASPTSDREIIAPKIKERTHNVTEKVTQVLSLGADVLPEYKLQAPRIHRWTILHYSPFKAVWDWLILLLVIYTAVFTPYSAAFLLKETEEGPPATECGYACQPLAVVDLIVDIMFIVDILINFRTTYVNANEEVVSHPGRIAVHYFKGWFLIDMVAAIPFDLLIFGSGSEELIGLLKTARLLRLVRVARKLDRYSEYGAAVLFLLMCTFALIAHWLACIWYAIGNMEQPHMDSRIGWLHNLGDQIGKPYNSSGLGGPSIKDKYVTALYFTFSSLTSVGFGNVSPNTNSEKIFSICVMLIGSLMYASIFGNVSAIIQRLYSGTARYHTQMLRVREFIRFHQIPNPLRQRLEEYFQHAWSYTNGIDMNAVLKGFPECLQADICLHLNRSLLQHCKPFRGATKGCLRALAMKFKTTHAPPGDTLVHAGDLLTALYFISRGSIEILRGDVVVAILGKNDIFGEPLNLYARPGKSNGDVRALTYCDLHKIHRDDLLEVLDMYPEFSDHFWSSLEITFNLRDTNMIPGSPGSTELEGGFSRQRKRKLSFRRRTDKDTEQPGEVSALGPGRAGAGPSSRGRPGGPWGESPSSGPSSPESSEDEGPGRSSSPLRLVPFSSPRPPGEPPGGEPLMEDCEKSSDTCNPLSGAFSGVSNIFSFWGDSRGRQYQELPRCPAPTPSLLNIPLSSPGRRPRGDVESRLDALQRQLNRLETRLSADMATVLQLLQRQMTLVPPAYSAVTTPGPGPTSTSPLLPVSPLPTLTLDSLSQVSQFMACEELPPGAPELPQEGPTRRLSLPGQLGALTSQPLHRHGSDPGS
Sequence of NR2B (Q00960 27-1482, other chains not shown): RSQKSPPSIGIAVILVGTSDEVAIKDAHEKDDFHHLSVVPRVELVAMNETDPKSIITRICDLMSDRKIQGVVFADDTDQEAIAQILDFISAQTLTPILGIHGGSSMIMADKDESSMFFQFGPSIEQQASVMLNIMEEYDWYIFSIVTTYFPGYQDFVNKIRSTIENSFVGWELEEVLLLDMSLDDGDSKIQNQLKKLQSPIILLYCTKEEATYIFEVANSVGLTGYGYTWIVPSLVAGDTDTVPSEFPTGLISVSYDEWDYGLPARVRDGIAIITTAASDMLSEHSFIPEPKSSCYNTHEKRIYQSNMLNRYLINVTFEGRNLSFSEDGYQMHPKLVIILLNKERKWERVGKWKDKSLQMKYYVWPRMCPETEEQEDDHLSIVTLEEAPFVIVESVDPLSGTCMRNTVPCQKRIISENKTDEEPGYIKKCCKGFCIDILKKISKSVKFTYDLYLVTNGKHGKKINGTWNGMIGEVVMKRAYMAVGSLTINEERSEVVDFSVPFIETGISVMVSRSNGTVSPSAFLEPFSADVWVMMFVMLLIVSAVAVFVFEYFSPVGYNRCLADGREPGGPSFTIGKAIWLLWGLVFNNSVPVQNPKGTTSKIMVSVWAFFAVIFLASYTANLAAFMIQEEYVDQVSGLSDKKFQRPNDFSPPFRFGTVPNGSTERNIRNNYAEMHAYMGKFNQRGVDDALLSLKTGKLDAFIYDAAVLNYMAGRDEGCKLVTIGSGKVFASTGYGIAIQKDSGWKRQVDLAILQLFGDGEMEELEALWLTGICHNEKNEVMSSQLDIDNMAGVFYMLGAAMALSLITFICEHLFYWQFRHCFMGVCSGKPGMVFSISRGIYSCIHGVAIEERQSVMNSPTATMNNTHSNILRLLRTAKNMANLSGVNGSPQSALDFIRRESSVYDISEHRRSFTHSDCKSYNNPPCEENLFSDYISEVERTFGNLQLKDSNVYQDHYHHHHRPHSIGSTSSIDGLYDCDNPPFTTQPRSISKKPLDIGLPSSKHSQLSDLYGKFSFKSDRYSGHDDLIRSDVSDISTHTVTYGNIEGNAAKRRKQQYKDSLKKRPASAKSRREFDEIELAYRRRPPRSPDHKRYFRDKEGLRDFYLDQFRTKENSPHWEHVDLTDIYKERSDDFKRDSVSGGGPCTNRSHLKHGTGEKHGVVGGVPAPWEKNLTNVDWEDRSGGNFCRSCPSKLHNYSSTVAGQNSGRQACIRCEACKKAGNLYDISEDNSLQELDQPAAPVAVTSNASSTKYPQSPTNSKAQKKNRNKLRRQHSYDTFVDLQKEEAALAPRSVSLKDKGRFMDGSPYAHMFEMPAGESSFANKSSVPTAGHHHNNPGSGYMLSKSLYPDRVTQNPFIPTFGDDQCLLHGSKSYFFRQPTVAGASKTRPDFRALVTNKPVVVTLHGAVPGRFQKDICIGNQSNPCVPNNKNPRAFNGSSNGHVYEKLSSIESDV

Row | Structure (SMILES) | IC50 (hERG) | IC50 (NR2B)
1 | Oc1ccc(C(O)CN2C[C@H]3C[C@H](Oc4ccccc4)C[C@H]3C2)nc1 (single isomer, unassigned) [Table 3 from WO 2016/049165 (isomer 1), reference compound] | 2000 nM | 
2 | Oc1ccc(C(O)CN2C[C@H]3C[C@H](Oc4ccccc4F)[C@H](O)[C@@]3(O)C2)nc1 (single isomer, unassigned) [Example 2B] |  | 2.2 nM
3 | Oc1ccc(C(O)CN2C[C@H]3C[C@H](Oc4ccccc4F)C[C@@]3(O)C2)nc1 (single isomer, unassigned) [Example 1B] | 14000 nM | 0.74 nM
4 | Oc1ccc(C(O)CN2C[C@@H]3C[C@@H](Oc4ccccc4)[C@@H](O)[C@]3(O)C2)nc1Cl (some centres unmarked) [Example 4A] |  | > 10000 nM
5 | Oc1c(F)cc([C@H](O)CN2C[C@H]3C[C@H](Oc4ccccc4)C[C@@]3(O)C2)cc1F [Example 10D, (3aS,5S,6aR)-2-((S)-2-(3,5-difluoro-4-hydroxyphenyl)-2-hydroxyethyl)-5-phenoxyhexahydrocyclopenta[c]pyrrol-3a(1H)-ol] | 25000 nM | 6 nM
6 | Oc1ccc(CCN2C[C@H]3C[C@H](Oc4cccnc4F)C[C@@]3(O)C2)nc1 [Example 20] |  | 820 nM
7 | Oc1ccc(C(O)CN2C[C@H]3C[C@H](Oc4ccccc4F)C[C@@]3(O)C2)nc1 (single isomer, unassigned) [Example 1C] | 22000 nM | 1.1 nM
8 | Oc1c(F)cc(C(O)CN2C[C@@H]3C[C@@H](Oc4ccccc4)[C@@H](O)[C@]3(O)C2)cc1F (single isomer, unassigned) [Example 5C] |  | 900 nM
9 | Oc1c(F)cc([C@@H](O)CN2C[C@H]3C[C@H](Oc4ccccc4)C[C@@]3(O)C2)cc1F [Example 10C] | 22000 nM | 14 nM
10 | Oc1c(F)cc(C(O)CN2C[C@H]3C[C@H](Oc4ccccc4)C[C@H]3C2)cc1F (mixture of isomers) [Mixture of two isomers at benzylic position, reference compound] | 2800 nM | 
11 | Oc1ccc(C(O)CN2C[C@H]3C[C@H](Oc4ccccc4)[C@H](O)[C@@]3(O)C2)nc1F (some centres unmarked) [Example 3D] |  | 24 nM
12 | Oc1ccc(C(O)CN2C[C@H]3C[C@H](Oc4ccccc4)C[C@H]3C2)nc1 (single isomer, unassigned) [Table 3 of WO 2016/049165 (isomer 2), reference compound] | 2700 nM | 
13 | Oc1ccc(C(O)CN2C[C@@H]3C[C@@H](Oc4ccccc4)[C@@H](O)[C@]3(O)C2)nc1F (some centres unmarked) [Example 3A] |  | > 10000 nM
14 | Oc1c(F)cc(C(O)CN2C[C@@H]3C[C@@H](Oc4ccccc4)[C@@H](O)[C@]3(O)C2)cc1F (single isomer, unassigned) [Example 5D] |  | 3700 nM
15 | Oc1ccc(C(O)CN2C[C@H]3C[C@H](Oc4ccccc4)C[C@@]3(O)C2)nc1 (single isomer, unassigned) [Example 7C] | 28000 nM | 2.4 nM
16 | Oc1ccc(C(O)CN2C[C@H]3C[C@H](Oc4ccccc4F)[C@H](O)[C@@]3(O)C2)nc1 (single isomer, unassigned) [Example 2A] |  | 11 nM
17 | Oc1ccc(C(O)CN2C[C@@H]3C[C@@H](Oc4ccccc4F)[C@@H](O)[C@]3(O)C2)nc1 (single isomer, unassigned) [Example 2D] |  | 950 nM
18 | Oc1ccc(C(O)CN2C[C@H]3C[C@H](Oc4ccccc4)C[C@@]3(O)C2)nc1 (single isomer, unassigned) [Example 7D] | 19000 nM | 3.2 nM
19 | Oc1ccc(C(O)CN2C[C@@H]3C[C@@H](Oc4ccccc4F)[C@@H](O)[C@]3(O)C2)nc1 (single isomer, unassigned) [Example 2C] |  | 770 nM
20 | Oc1c(F)cc(C(O)CN2C[C@H]3C[C@H](Oc4ccccc4)[C@H](O)[C@@]3(O)C2)cc1F (some centres unmarked) [Example 5B] |  | 28 nM
21 | Oc1ccc(CCN2C[C@H]3C[C@H](Oc4ccc(F)cc4F)C[C@@]3(O)C2)nc1 [Example 19] |  | 18 nM
22 | Oc1ccc(C(O)CN2C[C@H]3C[C@H](Oc4ccccc4)[C@H](O)[C@@]3(O)C2)nc1Cl (single isomer, unassigned) [Example 4C] |  | 31 nM
23 | Oc1ccc(C(O)CN2C[C@H]3C[C@H](Oc4ccccc4)[C@H](O)[C@@]3(O)C2)nc1Cl (single isomer, unassigned) [Example 4D] |  | 35 nM
